Where two headings read alike, the source gives them in different places.
Key:
[1] = tested on: MES-SA/DxP5002 (DxP) cells; experiment: Growth inhibition (MTT) assay, with or without MDR modulators; conditions: for Level of resistance of DxP cells to the cytotoxin compared with parental Dx5 (in words) / Fold resistance: DxP cells; for Dx5/DxP, fold of resistance difference in DxP cells compared with parental Dx5 cells: DxP vs Dx5
Description: Cells and Tissue Culture. […] Monolayer cultures of MES-SA cells and its variants were grown in McCoy's medium (Irvine Scientific, Santa Ana, Calif.) supplemented with 10% newborn calf serum (Gibco, Grand Island, N.Y.), 2 mM L-glutamine, and antibiotics(100 U/ml penicillin, 100 μg/ml streptomycin).
Growth Inhibition Assay. Approximately 8000 cells per well were seeded in 96 well plates and incubated with or without drugs for 72 hr at 37° C. in an atmosphere of 5% CO2. Growth inhibition was evaluated by the MTT colorimetric assay in triplicate or quadruplicate as previously described. The absorbance was measured with a ThermoMax microplate reader (Molecular Devices, Menlo Park, Calif.). […] The doubling times of MES-SA, D×5, and D×P were determined as previously described.
(§1) Reversal of MDR by Modulators. […] The modulation ratio was obtained by comparing IC50 s in the presence and absence of modulators.

MES-SA/Dx5 (Dx5) cells = experiment: as above; assay type: cell-based, human
Description: (§2) Cells and Tissue Culture. Details of the development and characterization of the human cell line MES-SA and its MDR variant MES-SA/Dx5 (D×5), which were derived from sarcoma elements of a uterine mixed Mullerian tumor, are described in Harker and Sikic (1985) Cancer Research 45:3810-3815. MES-SA/DxP5002 (DxP) cells were derived from Dx5.05 cells (D×5 cells selected and maintained at a DOX concentration of 0.5 μM) by step-wise selection in the presence of increasing DOX concentrations (from 40 nM up to 0.5 μM) and a constant PSC 833 concentration at 2 μM over a one-year period. Monolayer cultures of MES-SA cells and its variants were grown in McCoy's medium (Irvine Scientific, Santa Ana, Calif.) supplemented with 10% newborn calf serum (Gibco, Grand Island, N.Y.), 2 mM L-glutamine, and antibiotics(100 U/ml penicillin, 100 μg/ml streptomycin).
(§3) Growth Inhibition Assay. Approximately 8000 cells per well were seeded in 96 well plates and incubated with or without drugs for 72 hr at 37° C. in an atmosphere of 5% CO2. Growth inhibition was evaluated by the MTT colorimetric assay in triplicate or quadruplicate as previously described. The absorbance was measured with a ThermoMax microplate reader (Molecular Devices, Menlo Park, Calif.). The IC50 (drug concentration resulting in 50% inhibition of MTT dye formation, compared to controls) was determined directly from semi-logarithmic dose-response curves. The doubling times of MES-SA, D×5, and D×P were determined as previously described.
as §1

MES-SA cells = experiment: as above; assay type: cell-based, human; conditions: MES-SA cells; for IC50: Homo sapiens, read-out: IC50 of drug-sensitive MES-SA cells (values in parenthesis)
Description: as §2, §3, §1

Dx/PJS cells = experiment: MTT assay, DxP subclone; assay type: cell-based, human
Description: as §3, §1
(§4) Clonal Analysis of D×P cells. Subcloning of cells was performed by limiting dilution. Both resistant and revertant clones were analyzed for the MDR phenotype, drug accumulation, and rt-PCR or heteroduplex as described above.

Dx/PBS cells = experiment: MTT assay, DxP subclone; assay type: cell-based, human
Description: as §3, §1, §4

Dx/PGS cells = experiment: MTT assay, DxP subclone; assay type: cell-based, human
Description: as §3, §1, §4

Dx/PES cells = experiment: MTT assay, DxP subclone; assay type: cell-based, human
Description: as §3, §1, §4

Dx/PAS cells = experiment: MTT assay, DxP subclone; assay type: cell-based, human
Description: as §3, §1, §4

Dx/PFS cells = experiment: MTT assay, DxP subclone; assay type: cell-based, human
Description: as §3, §1, §4

Dx/PMS cells = experiment: MTT assay, DxP subclone; assay type: cell-based, human
Description: as §3, §1, §4

Dx/PCS cells = experiment: MTT assay, DxP subclone; assay type: cell-based, human
Description: as §3, §1, §4

Dx/PDS cells = experiment: MTT assay, DxP subclone; assay type: cell-based, human
Description: as §3, §1, §4

Dx/PIS cells = experiment: MTT assay, DxP subclone; assay type: cell-based, human
Description: as §3, §1, §4

[2] = biological target: P-gp of DxP cells (Phe335/336 deletion) (Homo sapiens, UniProt P08183, DEL335-335)
Description: (§5) Photoaffinity Labeling with [^25 -I]-iodoarylazidoprazesin and [^3 H]-Azidopine. […] These preparations were incubated at 25° C. for 1 hour in the dark, followed by a 20 min exposure to a 366 nm UV source (UVP, Inc., San Gabriel, Calif.). 50 μl of loading buffer was added and proteins separated on an 8% SDS-polyacrylamide gel, dried, and analyzed by autoradiography.

P-gp of Dx5 cells = P-gp of Dx5 cells (Homo sapiens, UniProt P08183)
Description: as §5

[3] = no modulator, relative to MES-SA

Sequence of P-gp of DxP cells (Phe335/336 deletion) (P08183 with tags, fused parts or gaps DEL335-335): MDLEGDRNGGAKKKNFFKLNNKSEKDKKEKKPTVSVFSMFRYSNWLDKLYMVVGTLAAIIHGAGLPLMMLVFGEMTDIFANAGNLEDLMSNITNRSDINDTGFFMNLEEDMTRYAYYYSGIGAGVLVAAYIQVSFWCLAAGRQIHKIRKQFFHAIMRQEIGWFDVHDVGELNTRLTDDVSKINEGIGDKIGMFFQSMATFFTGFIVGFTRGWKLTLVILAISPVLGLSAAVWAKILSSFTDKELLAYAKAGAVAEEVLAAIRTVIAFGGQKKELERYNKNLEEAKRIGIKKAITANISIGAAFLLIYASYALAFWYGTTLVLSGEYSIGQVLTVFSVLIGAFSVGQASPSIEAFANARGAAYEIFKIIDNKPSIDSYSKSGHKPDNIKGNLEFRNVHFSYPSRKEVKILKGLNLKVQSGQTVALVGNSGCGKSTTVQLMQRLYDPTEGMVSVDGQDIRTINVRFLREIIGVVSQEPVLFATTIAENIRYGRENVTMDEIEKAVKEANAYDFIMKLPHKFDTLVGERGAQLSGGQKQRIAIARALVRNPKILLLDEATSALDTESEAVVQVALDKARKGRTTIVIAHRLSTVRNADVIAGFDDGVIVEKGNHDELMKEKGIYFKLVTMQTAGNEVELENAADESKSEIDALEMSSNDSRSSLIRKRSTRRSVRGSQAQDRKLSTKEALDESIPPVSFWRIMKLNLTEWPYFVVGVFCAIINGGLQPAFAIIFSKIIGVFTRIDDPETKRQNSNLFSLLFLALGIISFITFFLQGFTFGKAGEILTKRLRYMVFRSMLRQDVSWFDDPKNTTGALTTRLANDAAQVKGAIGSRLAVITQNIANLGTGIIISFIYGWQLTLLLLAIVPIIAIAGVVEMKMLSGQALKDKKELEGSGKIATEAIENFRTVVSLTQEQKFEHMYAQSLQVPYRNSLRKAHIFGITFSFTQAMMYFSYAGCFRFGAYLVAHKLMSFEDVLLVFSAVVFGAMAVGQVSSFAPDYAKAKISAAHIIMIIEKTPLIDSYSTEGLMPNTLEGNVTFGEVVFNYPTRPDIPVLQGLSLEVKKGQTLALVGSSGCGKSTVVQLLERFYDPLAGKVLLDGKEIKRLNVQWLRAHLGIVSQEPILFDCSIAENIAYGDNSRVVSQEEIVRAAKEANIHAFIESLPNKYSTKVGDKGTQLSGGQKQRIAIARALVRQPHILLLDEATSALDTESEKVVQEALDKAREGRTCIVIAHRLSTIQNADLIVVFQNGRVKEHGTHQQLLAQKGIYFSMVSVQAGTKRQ
Sequence of P-gp of Dx5 cells (P08183 whole entry): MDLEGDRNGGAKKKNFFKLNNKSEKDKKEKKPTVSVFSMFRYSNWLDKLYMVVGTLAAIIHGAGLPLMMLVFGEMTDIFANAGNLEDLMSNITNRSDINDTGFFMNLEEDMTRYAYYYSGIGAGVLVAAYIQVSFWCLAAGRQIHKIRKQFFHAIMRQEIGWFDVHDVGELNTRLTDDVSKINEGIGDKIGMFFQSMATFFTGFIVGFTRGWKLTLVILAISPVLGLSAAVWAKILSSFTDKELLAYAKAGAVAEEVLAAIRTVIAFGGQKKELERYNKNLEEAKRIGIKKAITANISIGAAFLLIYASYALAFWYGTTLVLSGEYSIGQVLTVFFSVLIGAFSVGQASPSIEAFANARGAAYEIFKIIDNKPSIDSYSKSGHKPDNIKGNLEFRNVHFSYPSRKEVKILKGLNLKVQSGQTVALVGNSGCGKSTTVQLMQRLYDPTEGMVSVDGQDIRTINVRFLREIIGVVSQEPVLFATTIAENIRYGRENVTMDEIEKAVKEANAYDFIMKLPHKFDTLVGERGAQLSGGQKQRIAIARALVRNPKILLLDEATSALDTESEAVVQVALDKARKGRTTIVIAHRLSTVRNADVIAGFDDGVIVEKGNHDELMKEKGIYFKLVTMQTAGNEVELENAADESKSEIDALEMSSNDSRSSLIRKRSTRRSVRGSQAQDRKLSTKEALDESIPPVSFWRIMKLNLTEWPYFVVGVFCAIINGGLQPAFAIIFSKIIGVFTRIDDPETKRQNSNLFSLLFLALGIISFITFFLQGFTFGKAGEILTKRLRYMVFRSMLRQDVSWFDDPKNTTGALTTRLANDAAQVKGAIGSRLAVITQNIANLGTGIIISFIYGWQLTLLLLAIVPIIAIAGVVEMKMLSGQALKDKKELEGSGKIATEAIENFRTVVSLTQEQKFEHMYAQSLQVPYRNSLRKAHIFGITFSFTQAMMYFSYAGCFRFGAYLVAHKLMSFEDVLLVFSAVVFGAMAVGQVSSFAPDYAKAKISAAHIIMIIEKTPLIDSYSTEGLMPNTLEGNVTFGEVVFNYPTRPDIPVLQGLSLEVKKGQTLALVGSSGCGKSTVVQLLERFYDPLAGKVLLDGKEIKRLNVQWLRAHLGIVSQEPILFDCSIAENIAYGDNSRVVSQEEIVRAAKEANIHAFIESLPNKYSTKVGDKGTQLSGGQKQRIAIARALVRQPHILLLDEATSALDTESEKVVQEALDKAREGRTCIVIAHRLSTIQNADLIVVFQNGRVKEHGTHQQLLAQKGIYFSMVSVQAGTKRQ

With `CC(=O)O[C@H]1C(=O)[C@@]2(C)[C@H]([C@H](OC(=O)c3ccccc3)[C@]3(O)C[C@H](OC(=O)[C@H](O)[C@@H](NC(=O)c4ccccc4)c4ccccc4)C(C)=C1C3(C)C)[C@]1(OC(C)=O)CO[C@@H]1C[C@@H]2O` [Paclitaxel] the “Level of resistance of DxP cells to the cytotoxin compared with parental Dx5 (in words)” value [1] was “high levels of resistance”, the Fold resistance ([1]; +2 μM PSC 833) was 5 fold and the Fold resistance ([1]; +3 μM cyclosporin A) was 38 fold. For the same compound, the Fold resistance ([1]; +6 μM Verapamil) was 44 fold, the “Fold resistance” value [1, 3] was 100 fold and the “Dx5/DxP, fold of resistance difference in DxP cells compared with parental Dx5 cells” value (“Dx5/DxP, fold of resistance difference” below) [1] was 2 fold. The Fold resistance (MES-SA/Dx5 (Dx5) cells; +2 μM PSC 833) was 1 fold, the Fold resistance (MES-SA/Dx5 (Dx5) cells; +3 μM cyclosporin A) was 13 fold and the Fold resistance (MES-SA/Dx5 (Dx5) cells; +6 μM Verapamil) was 25 fold. The “Fold resistance” value (MES-SA/Dx5 (Dx5) cells; [3]) was 175 fold, the IC50 (MES-SA cells; 72 hr MTT) was 1 nM and the Fold resistance (MES-SA cells; +2 μM PSC 833) was 0.3-1 fold. The Fold resistance (MES-SA cells; +3 μM cyclosporin A) was 0.5-1 fold, the Fold resistance (MES-SA cells; +6 μM Verapamil) was 0.3-1 fold and the “Fold resistance” value (MES-SA cells; no modulator, 72 hr MTT) was 1 fold.

In the case of `COc1cc([C@@H]2c3cc4c(cc3[C@@H](O[C@@H]3O[C@@H]5CO[C@@H](c6cccs6)O[C@H]5[C@H](O)[C@H]3O)[C@H]3COC(=O)[C@H]23)OCO4)cc(OC)c1O` [Teniposide], the “Level of resistance of DxP cells to the cytotoxin compared with parental Dx5 (in words)” value [1] is reported as “moderately decreased resistance”, the “Fold resistance” value [1, 3] is reported as 53 fold and the “Dx5/DxP, fold of resistance difference” value [1] is reported as 3 fold. For the same compound, the “Fold resistance” value (MES-SA/Dx5 (Dx5) cells; [3]) was 135 fold, the IC50 (MES-SA cells; 72 hr MTT) was 100 nM and the “Fold resistance” value (MES-SA cells; no modulator, 72 hr MTT) was 1 fold.

`CC[C@]1(O)C[C@@H]2CN(CCc3c([nH]c4ccccc34)[C@@](C(=O)OC)(c3cc4c(cc3OC)N(C)[C@H]3[C@@](O)(C(=O)OC)[C@H](OC(C)=O)[C@]5(CC)C=CCN6CC[C@]43[C@@H]65)C2)C1` [Vinblastine] showed a Fold resistance ([1]; +2 μM PSC 833) of 12 fold, a Fold resistance ([1]; +3 μM cyclosporin A) of 7 fold and a Fold resistance ([1]; +6 μM Verapamil) of 3 fold. For the same compound, the “Fold resistance” value [1, 3] was 14 fold, the “Dx5/DxP, fold of resistance difference” value [1] was 17 fold and the Fold resistance (MES-SA/Dx5 (Dx5) cells; +2 μM PSC 833) was 1 fold. For the same compound, the Fold resistance (MES-SA/Dx5 (Dx5) cells; +3 μM cyclosporin A) was 6 fold, the Fold resistance (MES-SA/Dx5 (Dx5) cells; +6 μM Verapamil) was 4 fold and the “Fold resistance” value (MES-SA/Dx5 (Dx5) cells; [3]) was 243 fold. For the same compound, the IC50 (MES-SA cells; 72 hr MTT) was 4 nM, the Fold resistance (MES-SA cells; +2 μM PSC 833) was 0.3-1 fold and the Fold resistance (MES-SA cells; +2 μM PSC 833, listed as vinblastine) was 0.5 fold. The Fold resistance (MES-SA cells; +3 μM cyclosporin A) was 0.5-1 fold, the Fold resistance (MES-SA cells; +6 μM Verapamil) was 0.4-1 fold and the “Fold resistance” value (MES-SA cells; no modulator, 72 hr MTT) was 1 fold. For the same compound, the “fold resistance relative to MES-SA” value (Dx/PJS cells; + PSC) was 10 fold, the “fold resistance relative to MES-SA” value (Dx/PJS cells; no modulator) was 19 fold and the “fold resistance relative to MES-SA” value (Dx/PBS cells; + PSC) was 1 fold. The “fold resistance relative to MES-SA” value (Dx/PBS cells; no modulator) was 3 fold, the “fold resistance relative to MES-SA” value (Dx/PGS cells; + PSC) was 1 fold and the “fold resistance relative to MES-SA” value (Dx/PGS cells; no modulator) was 2 fold. The “fold resistance relative to MES-SA” value (Dx/PES cells; + PSC) was 1 fold, the “fold resistance relative to MES-SA” value (Dx/PES cells; no modulator) was 3 fold and the “fold resistance relative to MES-SA” value (Dx/PAS cells; + PSC) was 5 fold. The “fold resistance relative to MES-SA” value (Dx/PAS cells; no modulator) was 15 fold, the “fold resistance relative to MES-SA” value (Dx/PFS cells; + PSC) was 8 fold and the “fold resistance relative to MES-SA” value (Dx/PFS cells; no modulator) was 21 fold. For the same compound, the “fold resistance relative to MES-SA” value (Dx/PMS cells; + PSC) was 2 fold, the “fold resistance relative to MES-SA” value (Dx/PMS cells; no modulator) was 5 fold and the “fold resistance relative to MES-SA” value (Dx/PCS cells; + PSC) was 3 fold. The “fold resistance relative to MES-SA” value (Dx/PCS cells; no modulator) was 8 fold, the “fold resistance relative to MES-SA” value (Dx/PDS cells; + PSC) was 6 fold and the “fold resistance relative to MES-SA” value (Dx/PDS cells; no modulator) was 20 fold. For the same compound, the “fold resistance relative to MES-SA” value (Dx/PIS cells; + PSC) was 1 fold, the “fold resistance relative to MES-SA” value (Dx/PIS cells; no modulator) was 2 fold and the “Displacement of [3H]-azidopine photoaffinity labeling” value [2] was “resistant to the displacement”. For the same compound, the “Effect on [125I]-iodoarylazidoprazosin photoaffinity labeling of P-gp” value (“Effect … of P-gp” below) ([2]; 100 μM) was “abolished detectable P-gp labeling”, the “Effect … of P-gp” value ([2]; 0.1 and 10 μM) was “enhanced photoaffinity binding” and the “Effect … of P-gp” value (P-gp of Dx5 cells; 100 μM) was “abolished detectable P-gp labeling”. The “Effect … of P-gp” value (P-gp of Dx5 cells; 0.1 and 10 μM) was “effectively competed”.

In the case of `CC[C@]1(O)C[C@H]2CN(CCc3c([nH]c4ccccc34)[C@@](C(=O)OC)(c3cc4c(cc3OC)N(C=O)[C@H]3[C@@](O)(C(=O)OC)[C@H](OC(C)=O)[C@]5(CC)C=CCN6CC[C@]43[C@@H]65)C2)C1` [Vincristine], the Fold resistance ([1]; +2 μM PSC 833) is reported as 7 fold, the Fold resistance ([1]; +6 μM Verapamil) is reported as 3 fold and the “Fold resistance” value [1, 3] is reported as 8 fold. For the same compound, the “Dx5/DxP, fold of resistance difference” value [1] was 25 fold, the Fold resistance (MES-SA/Dx5 (Dx5) cells; +2 μM PSC 833) was 1 fold and the Fold resistance (MES-SA/Dx5 (Dx5) cells; +6 μM Verapamil) was 7 fold. For the same compound, the “Fold resistance” value (MES-SA/Dx5 (Dx5) cells; [3]) was 199 fold, the IC50 (MES-SA cells; 72 hr MTT) was 2 nM and the Fold resistance (MES-SA cells; +2 μM PSC 833) was 0.7 fold. The Fold resistance (MES-SA cells; +6 μM Verapamil) was 0.3-1 fold and the “Fold resistance” value (MES-SA cells; no modulator, 72 hr MTT) was 1 fold.

`CCC1=C[C@@H]2CN(C1)Cc1c([nH]c3ccccc13)[C@@](C(=O)OC)(c1cc3c(cc1OC)N(C)[C@H]1[C@@](O)(C(=O)OC)[C@H](OC(C)=O)[C@]4(CC)C=CCN5CC[C@]31[C@@H]54)C2` [vinorelbine] was tested, and the “Fold resistance” value [1, 3] was 2 fold, the “Dx5/DxP, fold of resistance difference” value [1] was 9 fold and the “Fold resistance” value (MES-SA/Dx5 (Dx5) cells; [3]) was 17 fold. For the same compound, the IC50 (MES-SA cells; 72 hr MTT) was 60 nM and the “Fold resistance” value (MES-SA cells; no modulator, 72 hr MTT) was 1 fold.
